In paper PMC6842059 (ChemMedChem, 2019):

Experiments:
in vitro = conditions: human

SMILES: CC(C)CN(C[C@@H](O)[C@H](Cc1ccccc1)NC(=O)O[C@H]1CO[C@H]2OCC[C@H]21)S(=O)(=O)c1ccc(B(O)O)cc1 [Inhibitor 5, (4-(N-((2R,3S)-3-(((((3R,3aS,6aR)-hexahydrofuro[2,3-b]furan-3-yl)oxy)carbonyl)amino)-2-hydroxy-4-phenylbutyl)-N-isobutylsulfamoyl)phenyl)boronic acid]
- selectivity index (CC50/IC50) (MT-2 cells): > 2,040
- CC50 (in vitro): > 100 µM

SMILES: CC(C)CN(C[C@@H](O)[C@H](Cc1ccccc1)NC(=O)O[C@H]1C2CO[C@H]3OC[C@@H]1C3C2)S(=O)(=O)c1ccc(B(O)O)cc1 (stereo partly drawn) [Inhibitor 6, (4-(N-((2R,3S)-3-(((((3S,7aS,8S)-Hexahydro-4H-3,5-methanofuro[2,3-b]pyran-8-yl)oxy)carbonyl)amino)-2-hydroxy-4-phenylbutyl)-N-isobutylsulfamoyl)phenyl)boronic acid]
- selectivity index (CC50/IC50) (MT-2 cells): > 2,650
- CC50 (in vitro): > 100 µM
